Measured values reported in US20120059021A1, “COMPOSITIONS AND METHODS FOR TREATING CANCER AND METHODS FOR PREDICTING A RESPONSE TO SUCH TREATMENTS” (UNIVERSITY OF WASHINGTON, priority 2008, published 2012).

How the values were obtained:
[1] = tested on: SKMEL28; assay: Flow cytometry for active (cleaved) caspase-3, SKMEL28; format: cell-based, human; conditions: 2 uM PLX4720, 24 hours, in % (unit assumed)
Protocol: (§1) Flow cytometry for Active Caspase-3. Cells were seeded in a 6-well dish at a density to achieve 90-100% confluence at harvest. 24 hours after seeding, cells were treated with the indicated conditions for the indicated amount of time. At the time of collection, supernatants were collected and pooled with trypsinized cells. Cells were fixed with 4% paraformaldehyde and permeabilized according to vendor's protocol for Cleaved Caspase-3 (Asp175) Antibody (AlexaFluor 488 Conjugate) (catalog #9669) (Cell Signaling, Beverly Mass.). The antibody was used at a final dilution of 1:100. Flow was performed on a BD FACSCanto H, and data analysed with FlowJo 8.8.6 (Tree Star) software. Experiments were performed with biological triplicates and data are representative of at least three independent experiments.
(§2) For experiments involving siRNAs, cells were reverse transfected with 20 nM siRNA in 6-well dishes in triplicate with RNAiMax according to manufacturer's protocol. 48 hours following transfection, cells were treated with the indicated conditions for 24 hours and then harvested for analysis. Cells were harvested, stained, and analyzed as described above.

[2] = tested on: SKMEL5; assay: Flow cytometry for active (cleaved) caspase-3, SKMEL5; format: cell-based, human; conditions: 2 uM PLX4720, 24 hours, in % (unit assumed)
Protocol: as §1, §2

[3] = tested on: A375; assay: qPCR of endogenous Wnt target gene AXIN2, A375; format: cell-based, human; conditions: A375; WNT3A CM, 2 μM PLX4720, 24 hours
Description: (§3) RNA purification and qRT-PCR analysis. RNA was purified using the RNeasy kit following the manufacturer's protocol (Qiagen; Maryland, Md.). cDNA was synthesized using RevertAid™ M-MuLV Reverse Transcriptase (Fermentas; Ontario, CAN). Light Cycler FastStart DNA Master SYBR Green1 (Roche; Mannheim, Germany) was used for real-time PCR as previously described (53). Quantitative PCR results presented in the manuscript are averages of a minimum of three biologic replicates.

[4] = tested on: COLO829; assay: Flow cytometry for active (cleaved) caspase-3, COLO829; format: cell-based, human; conditions: WNT3A, 2 μM PLX4720, 24 hours
Protocol: as §1, with “experiments. For experiments involving siRNAs, cells were reverse transfected with 20 nM siRNA in 6-well dishes in triplicate with RNAiMax according to manufacturer's protocol. 48 hours following transfection, cells were treated with the indicated conditions for 24 hours and then harvested for analysis. Cells were harvested, stained, and analyzed as described above.” for “experiments.”

[5] = tested on: A375; assay: Flow cytometry for active (cleaved) caspase-3, A375; format: cell-based, human
Protocol: as §1, with “experiments. For experiments involving siRNAs, cells were reverse transfected with 20 nM siRNA in 6-well dishes in triplicate with RNAiMax according to manufacturer's protocol. 48 hours following transfection, cells were treated with the indicated conditions for 24 hours and then harvested for analysis. Cells were harvested, stained, and analyzed as described above.” for “experiments.”

[6] = tested on: AXIN1; assay: Immunoblot of steady-state AXIN1 levels in melanoma cells; format: cell-based, human
[7] = tested on: GSK3β; assay: Immunoblot for activating auto-phosphorylation of GSK3β in A375 cells; format: cell-based, human
[8] = tested on: AXIN1; assay: qRT-PCR of AXIN1 mRNA in A375 cells; format: cell-based, human; conditions: A375, 2 μM PLX4720, 24 hours
Description: as §3

[9] = tested on: ERK1/2 phosphorylation; assay: ERK1/2 phosphorylation in human epidermal melanocytes; format: cell-based; conditions: HEMs
Description: Cell Lines. The human melanoma cell lines A375, A2058 and Me1624 were obtained from Cassian Yee (Fred Hutchinson Cancer Research Institute; Seattle, Wash.). The human melanoma cell lines COLO-829, SKMEL28, SKMEL5 were purchased from ATCC (Manassas, Va.). Human Epidermal Melanocytes, adult, lightly pigmented donor, (HEMa-LP) (C0245C) were purchased from Invitrogen (Carlsbad, Calif.). Stable BAR cell lines were generated as previously described (23). BAR luciferase cell lines were also infected with a lentivirus carrying Renilla luciferase driven by a constitutive EFlalpha promoter.
Cell Culture. The human melanoma lines A375, A2058 were cultured in DMEM supplemented with 5% FBS and 1% antibiotic. The human melanoma lines SK-MEL-5 and SK-MEL-28 were grown in EMEM supplemented with 10% FBS and 1% antibiotic. The human melanoma lines COLO-829 and MEL-624 were grown in RPMI supplemented with 10% FBS and 1% antibiotic HEMa-LP cells were cultured in medium 254 supplemented with 1% HMGS and 1% antibiotic (Invitrogen Carlsbad, Calif.). Synthetic siRNAs were transfected into cultured cells at a final concentration of 20 nM using RNAiMAX (Invitrogen; Grand Island, N.Y.).

[10] = tested on: human epidermal melanocytes (HEM); assay: qPCR of endogenous Wnt target gene AXIN2, human epidermal melanocytes (HEM); format: cell-based; conditions: WNT3A CM, 2 μM PLX4720, 24 hours
Description: as §3

[11] = A375, WNT3A and PLX4720 time course

SMILES: CCCS(=O)(=O)Nc1ccc(F)c(C(=O)c2c[nH]c3ncc(Cl)cc23)c1F [PLX4720, N-[3-[(5-Chloro-1H-pyrrolo[2,3-b]pyridin-3-yl)carbonyl]-2,4-difluorophenyl]-1-propanesulfonamide]
- cleaved caspase-3-positive cells ([1]; AXIN1/2 siRNA, L CM): 31.47 ± 0.13
- cleaved caspase-3-positive cells ([1]; AXIN1/2 siRNA, W3A CM): 33.93 ± 4.1
- cleaved caspase-3-positive cells ([1]; Control siRNA, L CM): 6.02 ± 0.63
- cleaved caspase-3-positive cells ([1]; Control siRNA, W3A CM): 8.64 ± 1.9
- cleaved caspase-3-positive cells ([2]; AXIN1/2 siRNA, L CM): 11.88 ± 0.18
- cleaved caspase-3-positive cells ([2]; AXIN1/2 siRNA, W3A CM): 13.13 ± 2.7
- cleaved caspase-3-positive cells ([2]; Control siRNA, L CM): 3.39 ± 0.22
- cleaved caspase-3-positive cells ([2]; Control siRNA, W3A CM): 4.28 ± 1.2
- SYNERGISTIC WNT ACTIVATION WITH PLX4720? [3]: YES
- SYNERGISTIC APOPTOSIS WITH WNT AND PLX4720? [4]: YES
- increase in cleaved caspase-3 ([5]; A375, WNT3A CM plus 2 μM PLX4720, 24 hours): 5-20 fold
- cleaved caspase-3 ([5]; A375, single agent alone, 24 hours): minimal increases in cleaved caspase-3
- SYNERGISTIC APOPTOSIS WITH WNT AND PLX4720? ([5]; A375, WNT3A, 2 μM PLX4720, 24 hours): YES
- steady-state levels of AXIN1 ([6]; A375, Mel624, and COLO829, WNT3A plus 2 μM PLX4720 vs WNT3A alone, 24 hours): markedly reduced
- time after which almost no detectable AXIN1 remained [6, 11]: 16 to 20 h
- time to rapid decrease in steady-state levels of AXIN1 [6, 11]: 1 to 2 h
- steady-state AXIN1 levels ([6]; SKMEL5, SKMEL28 and A2058, WNT3A plus 2 μM PLX4720 vs WNT3A alone, 24 hours): did not significantly decrease
- steady-state levels of AXIN1 ([6]; absence of rWnt3A): slightly decreased
- steady-state levels of AXIN1 ([6]; presence of rWnt3A): markedly diminished
- activating auto-phosphorylation of GSK3B [7]: lost
- AXIN1 gene expression (mRNA) [8]: no transcriptional regulation of AXIN1 gene expression
- ERK1/2 phosphorylation [9]: no effect
- AXIN2 transcript levels [10]: did not exhibit any increase in AXIN2 transcript levels
